According to patent publication US20180282271A1, “ANTIBIOTIC AMINO ACID MIMETICS” (priority 2017, published 2018):
In brackets after ≈: the same amount, converted by molar mass. Several values for one entry are separate records, joined by “and”; a condition that tells them apart may be missing. Identical values can stand only once. Counter-ions that a name gives are not always drawn. Where a SMILES comes first, the peptide text is derived from it. [ ]: non-standard residue; d: D form. The star is where a group is joined. ξ: configuration not given here. ξF = NC(Cc1ccccc1)C(=O)O; ξhCys = NC(CCS)C(=O)O; ξhSer = NC(CCO)C(=O)O; ξC = NC(CS)C(=O)O; tBu = CC(C)(C)*; NHOH = ON*

Legend:
S. aureus = assay: MIC, conventional methods; format: cell-based, Staphylococcus aureus
Experimental: (§1) The following L,L-dipeptides were tested for their minimum inhibitory concentrations against three different bacterial strains as set forth in the table below. The testing protocol followed conventional methods and identified a MIC value reported as micrograms per milliliter (μg/mL). Each of the dipeptides had the following structure: Based on the above results, the sidechain of the methionine mimetic was modified to evaluate the effect of such substitution on MIC values. Again, this test used conventional assays to measure the MIC values of each of these modified mimetics.

E. coli = assay: MIC, conventional methods; format: cell-based, Escherichia coli
Experimental: as §1

P. aer. = assay: MIC, conventional methods; format: cell-based, Pseudomonas aeruginosa
Experimental: as §1

E. coli (ATTC 8739) = assay: Zone of inhibition test; format: cell-based; conditions: for concentration at which a zone of inhibition was shown: E. coli grown in a Petri dish, FIG. 1A/1B; for strength of the zone of inhibition, in words: cpd. A at 50 μg, Ex. 3 at 12.5 μg
Experimental: Compound A was tested against L-phenylalanine-(S)-2-amino-N-hydroxy-4-(methylthio)butanamide hydrochloride (Example 3) in a side-by-side comparison in a conventional zone of inhibition test. In this test, both compounds were compared at various concentrations against E. coli (ATTC 8739) grown in a Petri dish using the antibiotic kanamycin as a control.

[1] = system: Clostridium difficile MMX 4381/ATCC 700057; assay: Broth microdilution MIC, standard CLSI media, ATCC QC organism; format: cell-based; conditions: Clostridioides difficile, ATCC700057, 48 hr results
Experimental: (§2) The test organisms were originally received from clinical sources or from the American Type Culture Collection (ATCC, Manassas, Va.). When received, the organisms were subcultured onto an appropriate agar medium. Following incubation, colonies were harvested from the plate and a cell suspension was prepared in broth containing cryoprotectant and frozen at −80° C. Prior to the assay, a frozen vial of the culture was partially thawed and the contents were streaked for isolation onto an appropriate growth medium. The agar plates were incubated overnight at 35° C. Test organisms included staphylococci and enterococci (Table 1), streptococci (Table 2), Enterobacteriaceae (Table 3), lactose non-fermenting Gram-negative bacilli (Table 4), Haemophilus influenzae (Table 5), Neisseria gonorrhoeae (Table 5), and Clostridium difficile (Table 6).
(§3) The standard CLSI broth medium was employed for the purposes of quality control of the comparator drugs for the MIC assay and was only used for testing of relevant ATCC quality control isolates as established by CLSI (1-5).
(§4) MIC values were determined using a broth microdilution method as recommended by CLSI (1-5).
(§5) Column 1 was filled with 300 μL of the investigational and control agents at the appropriate stock concentration (40× of the highest test concentration). The Biomek 2000 was used to make eleven 2-fold serial dilutions to create a “mother plate.” The wells of column 12 contained no drug and served as growth control wells.
(§6) The daughter plates were prepared on the Biomek FX instrument which transferred 5 μL of drug solution from each well of the mother plate to the corresponding well of each daughter plate in a single step.
(§7) Standardized inoculum of each organism was prepared per CLSI methods (1-5). The inoculum for each organism was dispensed into sterile reservoirs divided by length (Beckman Coulter), and the Biomek 2000 was used to inoculate the plates. Daughter plates were placed on the Biomek 2000 work surface reversed so that inoculation took place from low to high drug concentration. The Biomek 2000 delivered 10 PL of standardized inoculum into each well resulting in a target inoculum size of approximately 5×10^5 CFU/mL. The wells of the daughter plates ultimately contained 185 μL of media, 5 μL of drug solution at 40× the test concentration, and 10 μL of bacterial inoculum prepared in media.
(§8) Plates were stacked 3-4 high, covered with a lid on the top plate, placed into plastic bags, and incubated at 35° C. under the appropriate conditions, with C. difficile incubated anaerobically. Plates were viewed post-incubation at 18-24 hr and again at 48 hr from the bottom using a plate viewer. […] MICs were read where visible growth of the organism was inhibited.

[2] = system: Pseudomonas aeruginosa MMX 103/ATCC 27853; assay: as above; format: cell-based
Experimental: as §2, §3, §4, §5, §6, §7, §8

[3] = system: Escherichia coli MMX 102/ATCC 25922; assay: as above; format: cell-based
Experimental: as §2, §3, §4, §5, §6, §7, §8

[4] = system: Neisseria gonorrhoeae MMX 683/ATCC 49226; assay: as above; format: cell-based
Experimental: as §2, §3, §4, §5, §6, §7, §8

[5] = system: Enterococcus faecalis MMX 101/ATCC 29212; assay: as above; format: cell-based
Experimental: as §2, §3, §4, §5, §6, §7, §8

[6] = system: Escherichia coli UNT116-1 (ATCC25922); assay: Murine superficial skin infection model; format: in vivo, mice; conditions: for Mean log10 CFU/wound: 50 uL topical +4, 8, 12, 16 & 20 hr, sampled +24 hr
Experimental: Evaluation of high dose of novel test article(s) for the treatment of a superficial skin infection in mice caused by Escherichia coli. […] Strain has been previously used separately for this infection at […]. Female 5-6 week old CD-1 (18-22 gm) were used in the studies. The mice were housed in groups of 5 with free access to food and water during the study. Cytoxan 150 mg/kg@15 mg/mL on Day-4 ONLY. The mice were anesthetized and kept sedated during the initial procedure under isoflurane vapors (3%). The fur on the back dorsal surface was shaved using electric clippers followed by 'wet shaving' with a disposable razor. The skin was then sterilized with a betadine wash followed by alcohol swab. An area of the shaved skin was then abraded utilizing a sterile gauze pad. Following this procedure, the skin became visibly damaged and characterized by reddening and glistening but no bleeding. […] The skin was then wiped with an alcohol swab and allowed to dry completely. After stripping of the skin, a bacterial infection was initiated by placing on the skin a 5-10 μL droplet containing approximately […] of both bacterium concentrated from overnight cultures in stationary phase. [table] Sponsors test articles were prepared in 0.05% methylcellulose. Fresh formulations were prepared for each day of dosing. The first application of each compound (N=10 mice/group) to the stripped skin of the mice was at 4 hr post-infection then continued q4 hr. For each treatment 50 uL of formulation was applied. Infection control groups' untreated mice were included with each experiment. The test was terminated 4 h after the last topical treatment. Immediately after the mice were euthanized (photographs of the wounds were taken for each group), the wounds, approximately 2 cm2, were excised, rinsed in sterile PBS and homogenized together with 2 ml of phosphate-buffered saline in a Polytron tissue homogenizer. The homogenates were washed once in phosphate-buffered saline to decrease the concentration of ointment. Suitable dilutions of the homogenates were plated on appropriate agar (with the addition of charcoal to avoid the effects of antibiotic carryover) for the organism to determine the number of living bacteria (CFU).

[7] = Table 1, L,L-dipeptides varied in T
[8] = Table 2, side chain Q of the methionine mimetic varied
[9] = Study #2, test articles 700 mg/mL, gentamicin 0.30%
[10] = Study #2, test articles 700 mg/mL, gentamicin 0.30%, topical, +24 hr

Row | Compound | MIC S. aur. (S. aureus; [7]) | MIC E. coli (E. coli; [7]) | MIC P. aer. (P. aer.; [7]) | MIC S. aur. (S. aureus; [8]) | MIC E. coli (E. coli; [8]) | MIC P. aer. (P. aer.; [8]) | also measured
1 | CSCC[C@H](NC(=O)[C@H](C)N)C(=O)NO [B] (H-Ala-Met-{NHOH}) | 131 µg/mL (≈ 557 µM) | 158 µg/mL (≈ 671 µM) | 1040 µg/mL (≈ 4420 µM) |  |  |  | 
2 | CSCC[C@H](NC(=O)[C@@H](N)C(C)C)C(=O)NO [C] (H-Val-Met-{NHOH}) | 416 µg/mL (≈ 1580 µM) | 520 µg/mL (≈ 1970 µM) | 833 µg/mL (≈ 3160 µM) |  |  |  | 
3 | CSCC[C@H](NC(=O)CN)C(=O)NO [Compound A] | 84 µg/mL (≈ 380 µM) | 138 µg/mL (≈ 624 µM) | 647 µg/mL (≈ 2920 µM) | 84 µg/mL (≈ 380 µM) | 138 µg/mL (≈ 624 µM) | 647 µg/mL (≈ 2920 µM) | concentration at which a zone of inhibition was shown (E. coli (ATTC 8739)): 50 µg; strength of the zone of inhibition, in words (E. coli (ATTC 8739)): quite weak
4 | CSCC[C@H](NC(=O)[C@@H](N)CCCCN)C(=O)NO [Compound E] | 104 µg/mL (≈ 356 µM) | 312 µg/mL (≈ 1070 µM) | >1660 µg/mL |  |  |  | 
5 | CSCC[C@H](NC(=O)[C@@H](N)CCC(=O)O)C(=O)NO [Compound F] (H-Glu-Met-{NHOH}) | 312 µg/mL (≈ 1060 µM) | 554 µg/mL (≈ 1890 µM) | 1660 µg/mL (≈ 5660 µM) |  |  |  | 
6 | CSCC[C@H](NC(=O)[C@@H]1CCCN1)C(=O)NO [D] (H-Pro-Met-{NHOH}) | 125 µg/mL (≈ 478 µM) | 312 µg/mL (≈ 1190 µM) | 270 µg/mL (≈ 1030 µM) |  |  |  | 
7 | CSCC[C@H](NC(=O)C(N)Cc1ccccc1)C(=O)NO (stereo partly drawn) [Example 3, L-phenylalanine-(S)-2-amino-N-hydroxy-4-(methylthio)butanamide hydrochloride] (H-[ξF]-Met-{NHOH}) |  |  |  |  |  |  | concentration at which a zone of inhibition was shown (E. coli (ATTC 8739)): 12.5 µg; strength of the zone of inhibition, in words (E. coli (ATTC 8739)): substantially stronger than the zone of inhibition for cpd. A at 50 μg
8 | C[S+]([O-])CCC(NC(=O)CN)C(=O)NO (stereo not shown) [G] |  |  |  | 51 µg/mL (≈ 215 µM) | 123 µg/mL (≈ 518 µM) | 416 µg/mL (≈ 1750 µM) | 
9 | CS(=O)(=O)CCC(NC(=O)CN)C(=O)NO (stereo not shown) [H] |  |  |  | 104 µg/mL (≈ 411 µM) | 208 µg/mL (≈ 821 µM) | 416 µg/mL (≈ 1640 µM) | 
10 | CCCCC(NC(=O)CN)C(=O)NO (stereo not shown) [I] |  |  |  | 51 µg/mL (≈ 251 µM) | 69 µg/mL (≈ 339 µM) | 520 µg/mL (≈ 2560 µM) | 
11 | CCSCCC(NC(=O)CN)C(=O)NO (stereo not shown) [J] (H-Gly-[ξhCys](Et)-{NHOH}) |  |  |  | 60 µg/mL (≈ 255 µM) | 129 µg/mL (≈ 548 µM) | 554 µg/mL (≈ 2350 µM) | 
12 | CCCCSCCC(NC(=O)CN)C(=O)NO (stereo not shown) [K] |  |  |  | 60 µg/mL (≈ 228 µM) | 150 µg/mL (≈ 570 µM) | 138 µg/mL (≈ 524 µM) | 
13 | CC(C)(C)SCCC(NC(=O)CN)C(=O)NO (stereo not shown) [L] (H-Gly-[ξhCys](tBu)-{NHOH}) |  |  |  | 77 µg/mL (≈ 292 µM) | 207 µg/mL (≈ 786 µM) | 624 µg/mL (≈ 2370 µM) | 
14 | C/C(=C\C(=O)OCCCCCCCCC(=O)O)C[C@@H]1OC[C@H](C[C@@H]2O[C@H]2[C@@H](C)[C@H](C)O)[C@@H](O)[C@H]1O [MUP, mupirocin] |  |  |  |  |  |  | MIC [1]: > 256 µg/mL; MIC ([2]; ATCC27853, 24 hr results): > 256 µg/mL; MIC ([2]; ATCC27853, 48 hr results): > 256 µg/mL; MIC ([3]; ATCC25922, 24 hr results): > 256 µg/mL; MIC ([3]; ATCC25922, 48 hr results): > 256 µg/mL; MIC ([4]; ATCC49226, 24 hr results): > 256 µg/mL; MIC ([4]; ATCC49226, 48 hr results): > 256 µg/mL; MIC ([5]; ATCC29212, 24 hr results): 256 µg/mL (≈ 511 µM); MIC ([5]; ATCC29212, 48 hr results): > 256 µg/mL
15 | CCSCC(NC(=O)CN)C(=O)NO (stereo not shown) [M] (H-Gly-[ξC](Et)-{NHOH}) |  |  |  | 104 µg/mL (≈ 470 µM) | 159 µg/mL (≈ 719 µM) | 832 µg/mL (≈ 3760 µM) | 
16 | CC(C)(C)SCC(NC(=O)CN)C(=O)NO (stereo not shown) [N] (H-Gly-[ξC](tBu)-{NHOH}) |  |  |  | 77 µg/mL (≈ 309 µM) | 195 µg/mL (≈ 782 µM) | 693 µg/mL (≈ 2780 µM) | 
17 | COCCC(NC(=O)CN)C(=O)NO (stereo not shown) [O] (H-Gly-[ξhSer](Me)-{NHOH}) |  |  |  | 112 µg/mL (≈ 546 µM) | 374 µg/mL (≈ 1820 µM) | 624 µg/mL (≈ 3040 µM) | 
18 | Gentamicin |  |  |  |  |  |  | Mean log10 CFU/wound ([6]; Study #1, test articles 500 mg/mL, gentamicin 0.30%, wounds wrongly sprayed with 70% EtOH for test articles): 2.35 log10 CFU/wound; Mean log10 Change vs. +24 hr ([6]; Study #1, test articles 500 mg/mL, gentamicin 0.30%, topical, +24 hr): −5.37 log10; reduction of bacterial skin burden compared to the 24 hour untreated control [6, 9]: 5.98 log10 CFU/wound; Mean log10 CFU/wound [6, 9]: 2.46 log10 CFU/wound; Log 10 CFU/wound, individual animal [6, 10]: 2.83 Log 10 CFU/wound and 2.35 Log 10 CFU/wound (8×) and 2.95 Log 10 CFU/wound; Mean log10 Change vs. +4 hr [6, 10]: −1.36 log10; Mean log10 Change vs. +24 hr [6, 10]: −5.98 log10; 95.00% CI of diff., Tukey's multiple comparisons test ([6]; Study #2, vs. +4 hr Infection Control): −2.209 to −0.5115; 95.00% CI of diff., Tukey's multiple comparisons test ([6]; Study #2, vs. +24 hr Infection control): −6.678 to −5.292
